This note sets out measurements from US9085570B2, “Substituted benzamides and their uses” (The Board of Trustees of the Leland Stanford Junior …, priority 2010, dated 2015).

A value given as a limit tells only on which side of the number the result lay.

Data set [1] concerns RCC4 with VHL-reintroduced (RCC4/VHL). Kind of data set: XTT cell viability assay in RCC4/VHL cells, selectivity ratio versus RCC4. It counts as cell-based. Particulars: Ratio = IC50RCC4/VHL/IC50RCC4. The protocol:
(§1) Cell Culture. RCC4 parental and RCC4 with VHL-reintroduced (RCC4/VHL), SN12C and SN12C-CSCG-VHL shRNA were maintained in DMEM supplemented with 10% FCS.
(§2) Cell Viability Assays. For 2,3-bis[2-methoxy-4-nitro-5-sulfophenyl]-2H-tetrazolium-5-carboxanilide (XTT) assays, five thousand cells were plated in 96-well plates. The next day, vehicle (DMSO) or drug was added by serial dilution. Four days later, media were aspirated, XTT solution (0.3 mg/ml of XTT (Sigma), […] N-methyl dibenxopyrazine methyl sulfate (Simga) in phenol red-free media) was added, and the plates were incubated at 37° C. for 1-2 hours. Metabolism of XTT was quantified by measuring the absorbance at 450 nm IC50s were calculated using linear interpolation. For clonogenic survival assays, three hundred cells were plated per 60 mm tissue culture dish. The cells were allowed to attach overnight and then treated with vehicle or drug for 14 days. Colonies were fixed and stained with crystal violet (0.1% crystal violet in 95% ethanol). All conditions were measured in triplicate and each experiment was done in duplicate or triplicate. To determine necrosis, cells were treated with drug for a given time point. Media and cells were collected, centrifugated, and resuspended in 0.4% trypan blue (Invitrogen). Live and dead cells were counted on a hematocytometer.
(§3) The designation A reflects an IC50 of <1 nM; B reflects an IC50 ranging from 1 to 20 nM; and C is an IC50 of >20 nM. The designation “a” reflects a ratio of RCC4/RCC-VHL+ranging from 1 to ≦10; “b” reflects from 10 to ≦100; “c” reflects a ratio of >100. Compounds I-29 have an IC50 value of ≦10 μM when tested in the above assay.
A general note: Tetrazolium assays rely on reduction of a dye to a coloured formazan, in cell work by metabolically active cells.

For a further data set, the system named is RCC4. As to the kind of experiment: XTT cell viability assay in RCC4 cells (VHL-deficient renal carcinoma). It counts as cell-based. The conditions noted are these: four days drug exposure. The protocol:
as §1, §2, §3

One may read the IC50 as the point on the concentration scale where inhibition reaches its midpoint. A low value points to inhibition by little substance. Take `Cc1oc(-c2ccc(C(=O)NCc3cccnc3)cc2)nc1CS(=O)(=O)C1CCNCC1` [Example 39, 4-(5-Methyl-4-((piperidin-4-ylsulfonyl)methyl)oxazol-2-yl)-N-(pyridin-3-ylmethyl)benzamide]: the “Ratio (IC50 RCC4 Proficient VHL)/ IC50 RCC4 Deficient VHL)” value in data set [1] is given as “b (from 10 to ≦100)”. This compound also came in with an IC50 in the data set on RCC4 (Homo sapiens, 96 h) of more than 20 nM.

For `Cc1oc(-c2ccc(C(=O)NCc3cccnc3)cc2)nc1CS(=O)(=O)C1CCN(C2CCCC2)CC1` [Example 54, 4-[4-[(1-cyclopentylpiperidine-4-sulfonyl)methyl]-5-methyl-1,3-oxazol-2-yl]-N-(pyridin-3-ylmethyl)benzamide], in data set [1], the “Ratio (IC50 RCC4 Proficient VHL)/ IC50 RCC4 Deficient VHL)” value is recorded as “b (from 10 to ≦100)”. Moreover, the IC50 in the data set on RCC4 (Homo sapiens, 96 h) was less than 1 nM.

Usually melting point stands for the temperature of the solid-liquid transition. Regarding `O=C(Nc1cccnc1)c1ccc(CNS(=O)(=O)c2ccc(Cl)nc2)cc1` [II-2, 4-({[(6-Chloro-3-pyridinyl)sulfonyl]amino}methyl)-N-(3-pyridinyl)benzamide], the melting point was 226 to 228 °C. The IC50 in the data set with RCC4 (Homo sapiens, 96 h) was more than 20 nM.

As to `Cc1oc(-c2ccc(C(=O)NCc3cccnc3)cc2)nc1CS(=O)(=O)[C@H]1CC[C@H](N)C1` [Example 47, 4-[4-([[(1S,3S)-3-Aminocyclopentane]sulfonyl]methyl)-5-methyl-1,3-oxazol-2-yl]-N-(pyridin-3-ylmethyl)benzamide], the “Ratio (IC50 RCC4 Proficient VHL)/ IC50 RCC4 Deficient VHL)” value in data set [1] is recorded as “b (from 10 to ≦100)”. The compound further yielded an IC50 in the data set on RCC4 (Homo sapiens, 96 h) of more than 20 nM.

With `Cc1oc(-c2ccc(C(=O)NCc3cccnc3)cc2)nc1CS(=O)(=O)[C@H]1CC[C@@H](N2CCCC2)CC1` [Example 42, 4-[5-methyl-4-([[4-(pyrrolidin-1-yl)cyclohexane]sulfonyl]methyl)-1,3-oxazol-2-yl]-N-(pyridin-3-ylmethyl)benzamide], the “Ratio (IC50 RCC4 Proficient VHL)/ IC50 RCC4 Deficient VHL)” value in data set [1] is recorded as “b (from 10 to ≦100)”. Further, the IC50 in the data set with RCC4 (Homo sapiens, 96 h) was less than 1 nM.

For the compound `Cc1oc(-c2ccc(C(=O)NCc3cccnc3)cc2)nc1CS(=O)(=O)C1CCN(CC(C)C)CC1` [Example 53, 4-(5-methyl-4-[[1-(2-methylpropyl)piperidine-4-sulfonyl]methyl]-1,3-oxazol-2-yl)-N-(pyridin-3-ylmethyl)benzamide], in data set [1], the “Ratio (IC50 RCC4 Proficient VHL)/ IC50 RCC4 Deficient VHL)” value is given as “a (a ratio of RCC4/RCC-VHL+ranging from 1 to ≦10)”. Further, in the data set with RCC4 (Homo sapiens, 96 h), the IC50 is less than 1 nM.

As for `Cc1oc(-c2ccc(C(=O)NCc3cccnc3)cc2)nc1CS(=O)(=O)[C@H]1CC[C@@H](N)CC1` [Example 41, 4-(4-(((1s,4s)-4-aminocyclohexylsulfonyl)methyl)-5-methyloxazol-2-yl)-N-(pyridin-3-ylmethyl)benzamide], in data set [1], the “Ratio (IC50 RCC4 Proficient VHL)/ IC50 RCC4 Deficient VHL)” value is recorded as “b (from 10 to ≦100)”. In the data set with RCC4, this compound returned an IC50 of more than 20 nM.

Turning to `Cc1oc(-c2ccc(C(=O)NCc3cccnc3)cc2)nc1CS(=O)(=O)[C@H]1CC[C@H](N2CCCCC2)CC1` [Example 46, 4-[5-Methyl-4-([[4-(piperidin-1-yl)cyclohexane]sulfonyl]methyl)-1,3-oxazol-2-yl]-N-(pyridin-3-ylmethyl)benzamide], in data set [1], the “Ratio (IC50 RCC4 Proficient VHL)/ IC50 RCC4 Deficient VHL)” value is listed as “b (from 10 to ≦100)”. Moreover, the IC50 with RCC4 (Homo sapiens, 96 h) was less than 1 nM.

For `Cc1oc(-c2ccc(C(=O)NCc3cccnc3)cc2)nc1CS(=O)(=O)[C@H]1CC[C@H](N2CCCC2)CC1` [Example 45, 4-[5-Methyl-4-([[4-(pyrrolidin-1-yl)cyclohexane]sulfonyl]methyl)-1,3-oxazol-2-yl]-N-(pyridin-3-ylmethyl)benzamide], the “Ratio (IC50 RCC4 Proficient VHL)/ IC50 RCC4 Deficient VHL)” value in data set [1] is recorded as “b (from 10 to ≦100)”. The IC50 in the data set with RCC4 (Homo sapiens, 96 h) lay in the range of 1 to 20 nM.

With `O=C(Nc1cccnc1)c1ccc(CNS(=O)(=O)c2nnc[nH]2)cc1` [II-7, N-(3-pyridinyl)-4-{[(4H-1,2,4-triazol-3-ylsulfonyl)amino]methyl}benzamide], the melting point lay within 266 to 269 °C. In the data set with RCC4 (Homo sapiens, 96 h), this compound returned an IC50 of more than 20 nM.

Regarding `Cc1oc(-c2ccc(C(=O)NCc3cccnc3)cc2)nc1CS(=O)(=O)[C@H]1CC[C@H](N2CCCC2)C1` [Example 48, 4-[5-Methyl-4-([[(1S,3S)-3-(pyrrolidin-1-yl)cyclopentane]sulfonyl]methyl)-1,3-oxazol-2-yl]-N-(pyridin-3-ylmethyl)benzamide], in data set [1], the “Ratio (IC50 RCC4 Proficient VHL)/ IC50 RCC4 Deficient VHL)” value is “b (from 10 to ≦100)”. Moreover, the IC50 with RCC4 (Homo sapiens, 96 h) was less than 1 nM.

Take `Cc1oc(-c2ccc(C(=O)NCc3cccnc3)cc2)nc1CS(=O)(=O)[C@@H]1CC[C@H](N)C1` [Example 50, 4-[4-([[(1R,3S)-3-Aminocyclopentane]sulfonyl]methyl)-5-methyl-1,3-oxazol-2-yl]-N-(pyridin-3-ylmethyl)benzamide]: the “Ratio (IC50 RCC4 Proficient VHL)/ IC50 RCC4 Deficient VHL)” value in data set [1] is on record as “b (from 10 to ≦100)”. This compound also returned an IC50 in the data set with RCC4 (Homo sapiens, 96 h) of more than 20 nM.

As to `Cc1oc(-c2ccc(C(=O)NCc3cccnc3)cc2)nc1CS(=O)(=O)C1CCN(C2CCCCC2)CC1` [Example 55, 4-[4-[(1-cyclohexylpiperidine-4-sulfonyl)methyl]-5-methyl-1,3-oxazol-2-yl]-N-(pyridin-3-ylmethyl)benzamide], in data set [1], the “Ratio (IC50 RCC4 Proficient VHL)/ IC50 RCC4 Deficient VHL)” value is “a (a ratio of RCC4/RCC-VHL+ranging from 1 to ≦10)”. The compound also displayed an IC50 in the data set with RCC4 (Homo sapiens, 96 h) of less than 1 nM.

For `Cc1oc(-c2ccc(C(=O)NCc3cccnc3)cc2)nc1CS(=O)(=O)[C@H]1CC[C@H](N)CC1` [Example 44, 4-(4-[[(4-Aminocyclohexane)sulfonyl]methyl]-5-methyl-1,3-oxazol-2-yl)-N-(pyridin-3-ylmethyl)benzamide], the “Ratio (IC50 RCC4 Proficient VHL)/ IC50 RCC4 Deficient VHL)” value in data set [1] is given as “b (from 10 to ≦100)”. The IC50 with RCC4 (Homo sapiens, 96 h) is more than 20 nM.

Take `Cc1oc(-c2ccc(C(=O)NCc3cccnc3)cc2)nc1CS(=O)(=O)[C@H]1CC[C@@H](N2CCCCC2)CC1` [Example 43, 4-[5-Methyl-4-([[4-(piperidin-1-yl)cyclohexane]sulfonyl]methyl)-1,3-oxazol-2-yl]-N-(pyridin-3-ylmethyl)benzamide]: in data set [1], the “Ratio (IC50 RCC4 Proficient VHL)/ IC50 RCC4 Deficient VHL)” value is “b (from 10 to ≦100)”. Also, the IC50 with RCC4 (Homo sapiens, 96 h) was less than 1 nM.

Consider `Cc1oc(-c2ccc(C(=O)NCc3cccnc3)cc2)nc1CS(=O)(=O)[C@H]1CC[C@H](N2CCCCC2)C1` [Example 49, 4-[5-Methyl-4-([[(1S,3S)-3-(piperidin-1-yl)cyclopentane]sulfonyl]methyl)-1,3-oxazol-2-yl]-N-(pyridin-3-ylmethyl)benzamide], for which the “Ratio (IC50 RCC4 Proficient VHL)/ IC50 RCC4 Deficient VHL)” value in data set [1] is on record as “b (from 10 to ≦100)”. Also, the IC50 in the data set with RCC4 was less than 1 nM.

With `Cc1oc(-c2ccc(C(=O)NCc3cccnc3)cc2)nc1CS(=O)(=O)[C@@H]1CC[C@H](N2CCCCC2)C1` [Example 52, 4-[5-Methyl-4-([[(1R,3S)-3-(piperidin-1-yl)cyclopentane]sulfonyl]methyl)-1,3-oxazol-2-yl]-N-(pyridin-3-ylmethyl)benzamide], the “Ratio (IC50 RCC4 Proficient VHL)/ IC50 RCC4 Deficient VHL)” value in data set [1] was “a (a ratio of RCC4/RCC-VHL+ranging from 1 to ≦10)”. Moreover, the IC50 with RCC4 (Homo sapiens, 96 h) is less than 1 nM.

For the compound `Cc1oc(-c2ccc(C(=O)NCc3cccnc3)cc2)nc1CS(=O)(=O)[C@@H]1CC[C@H](N2CCCC2)C1` [Example 51, 4-[5-Methyl-4-([[(1R,3S)-3-(pyrrolidin-1-yl)cyclopentane]sulfonyl]methyl)-1,3-oxazol-2-yl]-N-(pyridin-3-ylmethyl)benzamide], the “Ratio (IC50 RCC4 Proficient VHL)/ IC50 RCC4 Deficient VHL)” value in data set [1] is reported as “b (from 10 to ≦100)”. Further, in the data set on RCC4 (Homo sapiens, 96 h), the IC50 is less than 1 nM.

On to `O=C(Nc1cccnc1)c1ccc(CNS(=O)(=O)c2ccco2)cc1` [II-8, N-(3-Pyridinyl)-4-{[(2-furanylsulfonyl)amino]methyl}benzamide], for which the Ratio result in data set [1] is given as “a (a ratio of RCC4/RCC-VHL+ranging from 1 to ≦10)”. Besides, the IC50 in the data set with RCC4 (Homo sapiens, 96 h) was more than 20 nM.

Turning to `Cc1oc(-c2ccc(C(=O)NCc3cccnc3)cc2)nc1CS(=O)(=O)C1CCN(C)CC1` [Example 40, 4-(5-Methyl-4-((1-methylpiperidin-4-ylsulfonyl)methyl)oxazol-2-yl)-N-(pyridin-3-ylmethyl)benzamide], the “Ratio (IC50 RCC4 Proficient VHL)/ IC50 RCC4 Deficient VHL)” value in data set [1] was “b (from 10 to ≦100)”. In the data set with RCC4 (Homo sapiens, 96 h), this compound returned an IC50 of less than 1 nM.
